In the CheMixHub ionic liquid set:
± gives the uncertainty stated by the source.

Assay: xn = mol fraction of the nth substance listed
Conditions: 298.15 K, 101 kPa

Cc1ncc(C[n+]2csc(CCO)c2C)c(N)n1.Cl.[Cl-] + CCCCCCCCCCCCOS(=O)(=O)[O-].[Na+] + O
Conditions | electrical conductivity [S/m]
x2 = 0, x1 = 1.8e-07 | 0.00291 ± 0.0006
x2 = 0, x1 = 9e-07 | 0.00489 ± 0.00061
x2 = 0, x1 = 1.8e-06 | 0.00788 ± 0.00063
x2 = 7.35e-06, x1 = 1.8e-07 | 0.00635 ± 0.0006
x2 = 7.35e-06, x1 = 9e-07 | 0.00839 ± 0.00062
x2 = 7.35e-06, x1 = 1.8e-06 | 0.0119 ± 0.00066
x2 = 1.463e-05, x1 = 1.8e-07 | 0.0099 ± 0.00062
x2 = 1.463e-05, x1 = 9e-07 | 0.0118 ± 0.00063
x2 = 1.463e-05, x1 = 1.8e-06 | 0.0158 ± 0.00068
x2 = 2.18e-05, x1 = 1.8e-07 | 0.0131 ± 0.00063
x2 = 2.18e-05, x1 = 9e-07 | 0.0152 ± 0.00065
x2 = 2.18e-05, x1 = 1.8e-06 | 0.0196 ± 0.00072
x2 = 2.901e-05, x1 = 1.8e-07 | 0.0163 ± 0.00066
x2 = 2.901e-05, x1 = 9e-07 | 0.0186 ± 0.00068
x2 = 2.901e-05, x1 = 1.8e-06 | 0.0233 ± 0.00076
x2 = 3.604e-05, x1 = 1.8e-07 | 0.0196 ± 0.00069
x2 = 3.604e-05, x1 = 9e-07 | 0.0219 ± 0.00071
x2 = 3.604e-05, x1 = 1.8e-06 | 0.027 ± 0.00081
x2 = 4.307e-05, x1 = 1.8e-07 | 0.0228 ± 0.00072
x2 = 4.307e-05, x1 = 9e-07 | 0.0251 ± 0.00074
x2 = 4.307e-05, x1 = 1.8e-06 | 0.0308 ± 0.00087
x2 = 4.991e-05, x1 = 1.8e-07 | 0.026 ± 0.00076
x2 = 4.991e-05, x1 = 9e-07 | 0.0282 ± 0.00077
x2 = 4.991e-05, x1 = 1.8e-06 | 0.0347 ± 0.00094
x2 = 5.676e-05, x1 = 1.8e-07 | 0.0292 ± 0.0008
x2 = 5.676e-05, x1 = 9e-07 | 0.0312 ± 0.00081
x2 = 5.676e-05, x1 = 1.8e-06 | 0.0384 ± 0.001
x2 = 6.361e-05, x1 = 1.8e-07 | 0.0323 ± 0.00084
x2 = 6.361e-05, x1 = 9e-07 | 0.0342 ± 0.00086
x2 = 6.361e-05, x1 = 1.8e-06 | 0.0421 ± 0.0011
x2 = 7.027e-05, x1 = 1.8e-07 | 0.0354 ± 0.00088
x2 = 7.027e-05, x1 = 9e-07 | 0.0372 ± 0.0009
x2 = 7.028e-05, x1 = 1.8e-06 | 0.0457 ± 0.0011
x2 = 7.694e-05, x1 = 1.8e-07 | 0.0385 ± 0.00091
x2 = 7.694e-05, x1 = 9e-07 | 0.0402 ± 0.00094
x2 = 7.694e-05, x1 = 1.8e-06 | 0.0492 ± 0.0012
x2 = 8.361e-05, x1 = 1.8e-07 | 0.0414 ± 0.00094
x2 = 8.361e-05, x1 = 9e-07 | 0.0431 ± 0.00099
x2 = 8.361e-05, x1 = 1.8e-06 | 0.0526 ± 0.0012
x2 = 9.009e-05, x1 = 1.8e-07 | 0.0443 ± 0.00098
x2 = 9.009e-05, x1 = 9e-07 | 0.046 ± 0.001
x2 = 9.009e-05, x1 = 1.8e-06 | 0.0557 ± 0.0012
x2 = 9.658e-05, x1 = 1.8e-07 | 0.0471 ± 0.001
x2 = 9.658e-05, x1 = 9e-07 | 0.0489 ± 0.0011
x2 = 9.658e-05, x1 = 1.8e-06 | 0.0587 ± 0.0013
x2 = 0.0001031, x1 = 1.8e-07 | 0.0498 ± 0.001
x2 = 0.0001031, x1 = 9e-07 | 0.0518 ± 0.0011
x2 = 0.0001031, x1 = 1.8e-06 | 0.0616 ± 0.0013
x2 = 0.0001094, x1 = 1.8e-07 | 0.0524 ± 0.0011
x2 = 0.0001094, x1 = 9e-07 | 0.0545 ± 0.0011
x2 = 0.0001094, x1 = 1.8e-06 | 0.0643 ± 0.0013
x2 = 0.0001157, x1 = 1.8e-07 | 0.0549 ± 0.0011
x2 = 0.0001157, x1 = 9e-07 | 0.0571 ± 0.0011
x2 = 0.0001157, x1 = 1.8e-06 | 0.0668 ± 0.0013
x2 = 0.000122, x1 = 1.8e-07 | 0.0574 ± 0.0011
x2 = 0.000122, x1 = 9e-07 | 0.0595 ± 0.0011
x2 = 0.000122, x1 = 1.8e-06 | 0.0691 ± 0.0013
x2 = 0.0001281, x1 = 1.8e-07 | 0.0597 ± 0.0011
x2 = 0.0001281, x1 = 9e-07 | 0.0615 ± 0.0011
x2 = 0.0001281, x1 = 1.8e-06 | 0.0712 ± 0.0013
x2 = 0.0001342, x1 = 1.8e-07 | 0.0619 ± 0.0011
x2 = 0.0001342, x1 = 9e-07 | 0.0635 ± 0.0011
x2 = 0.0001342, x1 = 1.8e-06 | 0.0732 ± 0.0013
x2 = 0.0001404, x1 = 1.8e-07 | 0.0639 ± 0.0011
x2 = 0.0001404, x1 = 9e-07 | 0.0653 ± 0.001
x2 = 0.0001404, x1 = 1.8e-06 | 0.0751 ± 0.0013
x2 = 0.0001465, x1 = 1.8e-07 | 0.0656 ± 0.0011
x2 = 0.0001465, x1 = 9e-07 | 0.0669 ± 0.0011
x2 = 0.0001465, x1 = 1.8e-06 | 0.077 ± 0.0013
x2 = 0.0001524, x1 = 1.8e-07 | 0.0672 ± 0.001
x2 = 0.0001524, x1 = 9e-07 | 0.0685 ± 0.001
x2 = 0.0001524, x1 = 1.8e-06 | 0.0789 ± 0.0014
x2 = 0.0001584, x1 = 1.8e-07 | 0.0687 ± 0.001
x2 = 0.0001584, x1 = 9e-07 | 0.0699 ± 0.0011
x2 = 0.0001584, x1 = 1.8e-06 | 0.0807 ± 0.0014
x2 = 0.0001641, x1 = 1.8e-07 | 0.07 ± 0.001
x2 = 0.0001641, x1 = 9e-07 | 0.0712 ± 0.0011
x2 = 0.0001641, x1 = 1.8e-06 | 0.0825 ± 0.0015
x2 = 0.0001699, x1 = 1.8e-07 | 0.0712 ± 0.00098
x2 = 0.0001699, x1 = 9e-07 | 0.0724 ± 0.0011
x2 = 0.0001699, x1 = 1.8e-06 | 0.0842 ± 0.0015
x2 = 0.0001757, x1 = 1.8e-07 | 0.0724 ± 0.00097
x2 = 0.0001757, x1 = 9e-07 | 0.0736 ± 0.0011
x2 = 0.0001757, x1 = 1.8e-06 | 0.0857 ± 0.0015
x2 = 0.0001814, x1 = 1.8e-07 | 0.0735 ± 0.00099
x2 = 0.0001814, x1 = 9e-07 | 0.0748 ± 0.0011
x2 = 0.0001814, x1 = 1.8e-06 | 0.0872 ± 0.0014
x2 = 0.000187, x1 = 1.8e-07 | 0.0745 ± 0.001
x2 = 0.000187, x1 = 9e-07 | 0.076 ± 0.0011
x2 = 0.000187, x1 = 1.8e-06 | 0.0885 ± 0.0015
x2 = 0.0001928, x1 = 1.8e-07 | 0.0755 ± 0.001
x2 = 0.0001928, x1 = 9e-07 | 0.0771 ± 0.0012
x2 = 0.0001928, x1 = 1.8e-06 | 0.0898 ± 0.0015
x2 = 0.0001982, x1 = 1.8e-07 | 0.0765 ± 0.001
x2 = 0.0001982, x1 = 9e-07 | 0.0782 ± 0.0012
x2 = 0.0001982, x1 = 1.8e-06 | 0.0911 ± 0.0016
x2 = 0.0002038, x1 = 1.8e-07 | 0.0775 ± 0.001
x2 = 0.0002038, x1 = 9e-07 | 0.0794 ± 0.0012
x2 = 0.0002038, x1 = 1.8e-06 | 0.0924 ± 0.0015
x2 = 0.0002092, x1 = 1.8e-07 | 0.0784 ± 0.001
x2 = 0.0002092, x1 = 9e-07 | 0.0805 ± 0.0012
x2 = 0.0002092, x1 = 1.8e-06 | 0.0937 ± 0.0016
x2 = 0.0002147, x1 = 1.8e-07 | 0.0793 ± 0.0011
x2 = 0.0002148, x1 = 9e-07 | 0.0816 ± 0.0012
x2 = 0.0002148, x1 = 1.8e-06 | 0.0949 ± 0.0015
x2 = 0.00022, x1 = 1.8e-07 | 0.0802 ± 0.0011
x2 = 0.00022, x1 = 9e-07 | 0.0826 ± 0.0012
x2 = 0.00022, x1 = 1.8e-06 | 0.0961 ± 0.0016
x2 = 0.0002254, x1 = 1.8e-07 | 0.081 ± 0.0011
x2 = 0.0002254, x1 = 9e-07 | 0.0837 ± 0.0013
x2 = 0.0002254, x1 = 1.8e-06 | 0.0973 ± 0.0016
x2 = 0.0002306, x1 = 1.8e-07 | 0.0819 ± 0.0011
x2 = 0.0002306, x1 = 9e-07 | 0.0848 ± 0.0013
x2 = 0.0002306, x1 = 1.8e-06 | 0.0983 ± 0.0016
x2 = 0.0002358, x1 = 1.8e-07 | 0.0827 ± 0.0011
x2 = 0.0002358, x1 = 9e-07 | 0.0858 ± 0.0013
x2 = 0.0002358, x1 = 1.8e-06 | 0.0993 ± 0.0016
x2 = 0.0002411, x1 = 1.8e-07 | 0.0836 ± 0.0024
x2 = 0.0002411, x1 = 9e-07 | 0.0869 ± 0.0031
x2 = 0.0002411, x1 = 1.8e-06 | 0.1 ± 0.0037
